Columns and labels:
NHAC = assay: Effect of cycloheximide on asporin gene expression induction by TGF-β1 in NHAC; type: cell-based, human
Procedure: A time course of the expression of the asporin gene by TGF-β1 in NHAC was examined as described below. Cells were inoculated to a 12-well plate at 1×10^5 cells/well, and cultured in a DMEM/F12 containing 10% FBS until they became confluent. The medium was exchanged with a DMEM/F12 containing 0.2% FBS, and the cells were cultured for 24 hours, after which TGF-β1 (10 ng/ml) was added, total RNA was extracted over time, and the expression levels of the asporin and GAPDH genes were examined. As a result, the expression level of the asporin gene maximized when the cells were cultured in the presence of TGF-β1 (10 ng/ml) for 12 hours, and thereafter the expression level decreased over time (FIG. 46).
In the experimental system for asporin gene-expression induction by TGF-β1 used in the method described in Example 54, the effect of CHX (Sigma) (10 μM), a protein synthesis inhibitor, on the induction of the expression of the asporin gene (12 hours), when added 30 minutes before, simultaneously with, or 2 hours or 6 hours after addition of TGF-β1 (10 ng/ml), was examined. As a result, when CHX was added 30 minutes before, and simultaneously with, the addition of TGF-β1, asporin induction by TGF-β1 was inhibited (FIG. 48).

TGF-β1 = TGF-β1 (Homo sapiens, UniProt P01137); assay: Microplate binding assay, inhibition of biotinylated decholine binding to TGF-β1 solid phase; details: TGF-β1-coated microplate
Procedure: A binding assay of mouse asporin and TGF-β using the microplate assay method was performed with the degree of inhibition of binding of biotinylated decholine and TGF-β as the index, as described below. To a Maxisorp 96-well microplate of Nunc, a 1 μg/ml TGF-β1 solution prepared with 0.05 M sodium carbonate buffer (pH 9.6) was dispensed at 100 μl/well, and the microplate was coated with the solution at 4° C. overnight. The TGF-β-coated wells were blocked in a 200 μl/well of binding buffer (50 mM Tris (pH 7.4), 150 mM NaCl, 2% BSA, 0.05% Tween 20) at 37° C. for 3 hours. The wells were once washed with a 400 μl/well of binding buffer, after which biotinylated decholine and non-labeled protein, prepared with the binding buffer, were added to obtain a total quantity of 100 μl per well, and the microplate was incubated at 37° C. for 6 hours. The wells were washed with a 400 μl/well of binding buffer 3 times, after which streptavidin-HRP (R&D System), diluted 200 fold with the binding buffer, was added at 100 μl/well, and the microplate was incubated at room temperature for 20 minutes. […] The reaction was stopped by the direct addition of 1 M phosphoric acid at 100 μl/well, and absorbance at 415 nm (control: 750 nm) was measured using Ultramark Microplate Imaging System (BIO-RAD). […]

TGF-β1, sequence (P01137 279-390 limits assumed, species assumed): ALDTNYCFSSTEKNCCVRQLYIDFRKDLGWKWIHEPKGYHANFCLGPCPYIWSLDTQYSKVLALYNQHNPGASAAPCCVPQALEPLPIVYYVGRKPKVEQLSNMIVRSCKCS

C[C@@H]1C[C@@H]([C@H](O)CC2CC(=O)NC(=O)C2)C(=O)[C@@H](C)C1 [CHX, cycloheximide]
asporin induction by TGF-β1 (NHAC; CHX 10 μM added 30 minutes before or simultaneously with TGF-β1 10 ng/ml): inhibited
asporin induction by TGF-β1 (NHAC; CHX 10 μM added at 2 hours or thereafter following TGF-β1): induction of asporin gene expression by TGF-β1 was observed

B1: Fr.18-21: partially purified product of Escherichia coli recombinant S-tagged mouse asporin (protein, UniProt Q99MQ4 33-373, looked up)
Asporin: DMEDTDDDDNDDDDNSLFPTKEPVNPFFPFDLFPTCPFGCQCYSRVVHCSDLGLTSVPNNIPFDTRMVDLQNNKIKEIKENDFKGLTSLYALILNNNKLTKIHPKTFLTTKKLRRLYLSHNQLSEIPLNLPKSLAELRIHDNKVKKIQKDTFKGMNALHVLEMSANPLENNGIEPGAFEGVTVFHIRIAEAKLTSIPKGLPPTLLELHLDFNKISTVELEDLKRYRELQRLGLGNNRITDIENGTFANIPRVREIHLEHNKLKKIPSGLQELKYLQIIFLHYNSIAKVGVNDFCPTVPKMKKSLYSAISLFNNPMKYWEIQPATFRCVLGRMSVQLGNVGK
modifications: S-tag; partially purified fraction
notes: partially purified product of Escherichia coli recombinant S-tagged mouse asporin
inhibition of binding of biotinylated decholine to TGF-β1 (TGF-β1): observed with dependence on protein content

B2: S-tagged mouse asporin: S-tagged mature mouse asporin expressed in E. coli from pET29b-MASP, contained in Fr.18-21 (protein)
chain: B1 Asporin
modifications: left off: small tags and cut ends
binding of S-tagged mouse asporin to the TGF-β1 solid phase (TGF-β1): binding of S-tagged mouse asporin was observed
